These results are taken from PMC8071183 (International Journal of Molecular Sciences, 2021).

The target of test [1] is T1, WT D2R (human dopamine D2S receptor) (Homo sapiens, UniProt P14416). As to the kind of experiment: GIRK current activation rate (kobs) vs agonist concentration (kon estimate), WT D2R. The class given is cell-based. Here is the method:
(§1) A straight line was fitted to the data over the linear range of the relation between kobs and agonist concentration and the slope was taken as a measure of kon.
(§2) Experiments were performed using a perfusion rate of 4.5 mL/min. […] Note the logarithmic y-axis. […] Data are presented as mean ± SEM.
(§3) Association rate constant estimates were derived from recordings of GIRK current activation in response to applications of various agonist concentrations. Monoexponential functions were fit to cover 80% of the current increase in response to agonist using Levenberg–Marquardt least-squares fitting in Clampfit 10, outputting the activation time constant, τact. […] However, rather than using Equation (2), koff was calculated separately from the response decay time constant upon agonist washout, τdeact, as described above.

Test [2] addresses T2, D2R S193^5.42A (human dopamine D2S receptor mutant) (Homo sapiens, UniProt P14416, S193A). As to the kind of experiment: cell-based. Particulars: read-out: koff ± SEM.
The target in test [3] is T1, WT D2R (human dopamine D2S receptor). Put plainly: GIRK current deactivation following agonist washout (koff estimate), WT D2R. Format: cell-based. On the procedure: We obtained such estimates of koff by analyzing the washout phase following short (13 s) applications of submaximally effective agonist concentrations (see legend of Figure 2) in oocytes co-expressing WT D2R with GIRK1/4 and RGS4.
Experiments were performed using a perfusion rate of 4.5 mL/min. Data are presented as mean ± SEM.
(§4) Injected cells were incubated for another 6 days at 12 °C in modified Barth’s solution (MBS), composed of (in mM): 88 NaCl, 1 KCl, 2.4 NaHCO3, 15 HEPES, 0.33 Ca(NO3)2, 0.41 CaCl2, 0.92 MgSO4, and 2.5 sodium pyruvate, supplemented with 25 U/mL penicillin and 25 µg/mL streptomycin and adjusted to pH 7.6 with NaOH. […] For each concentration of agonist, the relative current amplitude after 60 s (when a steady-state response had been achieved) of agonist perfusion was plotted to generate the concentration-response relationships. Oocytes were selected for electrophysiology recordings based on having holding currents at −40 mV of less than 0.5 µA. Likewise, recordings where holding currents at −40 mV were greater than 0.5 µA after data acquisition at −80 mV were discarded.

In a further test the test system is D2R S193^5.42A. Particulars: cited from earlier work.
For test [4], the target named is T2, D2R S193^5.42A (human dopamine D2S receptor mutant). Put plainly: cell-based. Here is the method:
as §1, §2, §3
Kinetic Kds were calculated as:Kd = koff/kon(3)

The target is the same in test [5]. As to the kind of experiment: cell-based. To be noted: for EC50: GIRK activation, perfusion 1 mL/min. Here is the method: (§5) Following agonist application to Xenopus oocytes expressing D2R and GIRK1/4 subunits, Gβγ subunits released from activated Gi/o protein heterotrimers open the GIRK channels. […] Here, we used the GIRK current in oocytes voltage-clamped at −80 mV and superfused with a high-K^+ buffer (25 mM KCl) as a readout of agonist binding to D2R.
(§6) Thus, increasing agonist concentrations were applied consecutively to voltage-clamped oocytes expressing WT D2R, RGS4, and GIRK1/4. […] A representative trace of currents measured during p-tyramine concentration–response data acquisition is shown in Supplementary Figure S1).
as §4
(§7) Agonist concentration–response relationships were analyzed by fitting sigmoidal functions using nonlinear regression in GraphPad Prism 8 (GraphPad Software, San Diego, CA, USA).

Test [6] has as its target T1, WT D2R (human dopamine D2S receptor). As to the kind of experiment: cell-based. On the procedure: as §5, §6, §4, §7
The subject of a further test is D2R. Particulars: 1 µM haloperidol; 100 nM DA; cited from earlier work.
Test [7] has as its system GIRK channels. Particulars: haloperidol at 1 µM; cited from earlier work.
For test [8], the system named is GIRK channels. As to the kind of experiment: Direct GIRK channel block by haloperidol. Format: cell-based. Particulars: haloperidol at 3 µM; n = 4.

T1 sequence (P14416 1-414 isoform P14416-2): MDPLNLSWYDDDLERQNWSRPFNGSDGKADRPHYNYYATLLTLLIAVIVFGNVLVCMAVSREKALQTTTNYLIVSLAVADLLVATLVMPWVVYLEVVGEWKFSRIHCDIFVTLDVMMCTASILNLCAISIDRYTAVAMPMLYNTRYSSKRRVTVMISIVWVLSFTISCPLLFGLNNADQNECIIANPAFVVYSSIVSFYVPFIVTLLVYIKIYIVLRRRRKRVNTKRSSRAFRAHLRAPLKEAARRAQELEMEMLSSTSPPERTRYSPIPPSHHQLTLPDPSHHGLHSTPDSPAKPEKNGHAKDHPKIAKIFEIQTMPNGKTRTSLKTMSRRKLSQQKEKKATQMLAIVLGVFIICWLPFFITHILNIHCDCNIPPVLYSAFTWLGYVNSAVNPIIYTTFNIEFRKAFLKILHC
T2 sequence (P14416 1-414 isoform P14416-2 S193A): as the sequence (P14416 1-414 isoform P14416-2) above, with S193A counted along it

The Kd is a measure of binding affinity in units of concentration. In general, kon refers to the rate constant with which the complex forms. One may read the koff as the rate constant with which the complex falls apart. Broadly, the EC50 is the concentration needed to bring the measured effect to its halfway point. A lower EC50 goes with greater potency. For `NCCc1ccc(O)cc1` [p-tyramine], the Kd in [1] (Kd = koff/kon, read-out: pKd ± SEM (kinetic Kd) (converted)) is 24.5 µM; in test [4] it was 11.7 µM. The on-rate (kon) in test [1] (slope of linear fit of kobs vs agonist concentration, perfusion 4.5 mL/min) is 4940 ± 1.15e+06 M⁻¹ s⁻¹; in test [4] (read-out: kon ± SEM), 9410 ± 2.34e+06 M⁻¹ s⁻¹. Besides, the values for the koff in [2] and in test [3] were 0.112 ± 0.008 s⁻¹ and 0.123 ± 0.008 s⁻¹, respectively. Moreover, in the test with D2R S193^5.42A, the “decrease of affinity by alanine mutation of S193^5.42” value is “less than twofold”. In addition, the EC50 in test [5] (EC50, S193^5.42A D2R) was 47.9 µM; in test [5] (pEC50 ± SEM, S193^5.42A D2R), 47.9 µM; in test [6] it was 100 µM. Besides, the “Relative efficacy (fitted Top)” value in test [5] (S193^5.42A D2R, normalized to the response evoked by 300 µM DA) was determined as 0.37 ± 0.01; in test [6] (WT D2R, normalized to the response evoked by 1 µM DA), 0.09 ± 0.01. Further, in test [5] (S193^5.42A vs WT D2R), the “fold increase of DA-normalized agonist efficacy at S193^5.42A” value is on record as 4.1 fold.

Take `O=C(CCCN1CCC(O)(c2ccc(Cl)cc2)CC1)c1ccc(F)cc1` [haloperidol]: the “block of the GIRK response to DA” value in the test on D2R is recorded as “fully blocks”. In addition, in the test on GIRK channels [7], the GIRK channel block entry is reported as “negligible”. In addition, the “direct GIRK current block” value in the test with GIRK channels [8] stood at 5.9 ± 0.2%.
